In data set [1] the target is Epidermal growth factor receptor (Homo sapiens, UniProt P00533).
Description: Inhibition of wild type recombinant human EGFR assessed as reduction in autophosphorylation of cytoplasmic domain by Z'-Lyte assay
A further data set deals with A549. As to the kind of experiment: cells. Type of data set: functional, cell-based. The settings on record: Homo sapiens, A549, 72 h.
The subject of data set [2] is Epidermal growth factor receptor (Homo sapiens), P00533 [L858R,T790M]. As to the kind of experiment: Potency index, ratio of gefitinib IC50 to compound IC50 for inhibition of recombinant human EGFR L858R/T790M double mutant. The format is protein assay.
The target of data set [3] is Epidermal growth factor receptor (Homo sapiens, UniProt P00533, L858R/T790M). Type of data set: protein assay.
Description: Inhibition of recombinant human EGFR L858R/T790M double mutant assessed as reduction in autophosphorylation of cytoplasmic domain by Z'-Lyte assay
Data set [4] relates to NCI-H1975. Description: Effect on total EGFR L858R/T790M double mutant level in human NCI-H1975 cells at 0.1 to 10 uM after 12 hrs by Western blot analysis. The conditions noted are these: nci-h1975, 12 h. Type of data set: ADME, cell-based. (A western blot detects proteins with antibodies after separation by electrophoresis.)
Data set [5] concerns Epidermal growth factor receptor (Homo sapiens), P00533 [L858R,T790M]. The conditions noted are these: NCI-H1975, at 1 µM.
Description: Inhibition of EGFR L858R/T790M double mutant in human NCI-H1975 cells assessed as reduction in phosphorylated AKT level at 1 uM after 12 hrs by Western blot analysis
The nature of data set [6]: Antiproliferative activity against human HCC827 cells harboring EGFR E746 to A750 deletion mutant assessed as reduction in cell viability after 72 hrs by MTT assay. Type of data set: functional, cell-based. The conditions noted are these: HCC827, 72 h. A general note: Tetrazolium dyes change colour on reduction, which living cells bring about.
The subject of data set [7] is NCI-H1975. As to the kind of experiment: Effect on total beta-actin level in human NCI-H1975 cells at 0.1 to 10 uM after 12 hrs by Western blot analysis. Type of data set: ADME, cell-based. The conditions noted are these: nci-h1975, 12 h.
The subject of data set [8] is NCI-H1975. Description: cells. The format is functional, cell-based. The conditions noted are these: Homo sapiens, NCI-H1975, 72 h.
Description: Antiproliferative activity against human NCI-H1975 cells harboring EGFR L858R/T790M double mutant assessed as reduction in cell viability after 72 hrs by MTT assay
The test system of data set [9] is Epidermal growth factor receptor (Homo sapiens), P00533 [L858R,T790M]. Description: Inhibition of EGFR L858R/T790M double mutant autophosphorylation in human NCI-H1975 cells after 12 hrs by Western blot analysis. Type of data set: cell-based.
The next data set deals with MCF7. Description: cells. Type of data set: functional, cell-based. The settings on record: Homo sapiens, MCF7, 72 h.
Data set [10] relates to NCI-H1975. As to the kind of experiment: Effect on total AKT level in human NCI-H1975 cells at 0.1 to 10 uM after 12 hrs by Western blot analysis. Type of data set: ADME, cell-based. The settings on record: nci-h1975, 12 h.
The next data set concerns A-431. As to the kind of experiment: cells. The format is functional, cell-based. The conditions noted are these: Homo sapiens, A-431, 72 h.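 Note: loss of viability in A431 cells carrying wild-type EGFR, read out by MTT, antiproliferative effect.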
Data set [11] has as its system NCI-H1975. Description: Potency index, ratio of gefitinib IC50 to compound IC50 for antiproliferative activity against human NCI-H1975 cells harboring EGFR L858R/T790M double mutant. The format is functional.

Activity calls are given as the source filed them. No cut-off for these calls is given here. Where only a bound is given, the exact number is not on record here.

Description for A-431: Antiproliferative activity against human A431 cells harboring wild type EGFR assessed as reduction in cell viability after 72 hrs by MTT assay
Description for A549: Antiproliferative activity against human A549 cells harboring K-ras mutation assessed as reduction in cell viability after 72 hrs by MTT assay
Description for MCF7: Antiproliferative activity against human MCF7 cells overexpressing EGFR assessed as reduction in cell viability after 72 hrs by MTT assay

In general, IC50 refers to the concentration that inhibits the measured activity by half. As to `COCCOc1cc2ncnc(Nc3ccc(C(=O)NC45CC6CC(CC(C6)C4)C5)cc3)c2cc1OCCOC`, the IC50 was 0.00961 µM in [1]; 3.42 µM in the data set with A549; 0.00602 µM in data set [3]; 0.038 µM in [6]; 12.4 µM in the data set on NCI-H1975 [8]; 1.25 µM in the data set on MCF7. For the same compound, in the data set on A-431, the IC50 turned out to be 1.02 µM. Moreover, the Ratio IC50 in data set [2] worked out at 160. Also, the Activity result in the data set with NCI-H1975 [4], in the data set on NCI-H1975 [7] and with NCI-H1975 [10] was “Non-toxic” throughout. In addition, the inhibition entry in [5] was “Active”. In addition, the inhibition result in [9] was “Dose-dependent effect”.
For the compound `COCCOc1cc2ncnc(Nc3cccc(NC(=O)C45CC6CC(CC(C6)C4)C5)c3)c2cc1OCCOC`, the IC50 in data set [1] was 0.00163 µM; in the data set with A549 it was 3.99 µM; in [3], 0.0145 µM; in data set [6] it was 0.03 µM; with NCI-H1975 [8], 18.8 µM; in the data set with MCF7 it was 11.2 µM. The IC50 in the data set with A-431 worked out at 9.52 µM.
As for `COCCOc1cc2ncnc(Nc3ccc(NC(=O)C45CC6CC(CC(C6)C4)C5)c(C#N)c3)c2cc1OCCOC`, the IC50 was 0.00501 µM in [1]; 7.74 µM with A549; 0.0104 µM in data set [3]; over 0.04 µM in [6]; 38.3 µM in the data set with NCI-H1975 [8]; 5.64 µM in the data set with MCF7. The compound further came in with an IC50 in the data set on A-431 of 4.51 µM.
As for `COc1cc2ncnc(Nc3cc(C(=O)NC45CC6CC(CC(C6)C4)C5)ccc3C)c2cc1OCCCN1CCOCC1`, the IC50 in data set [1] was determined as 0.0154 µM; with A549 it was 6.73 µM; in data set [3], 0.0327 µM; in [6], 0.014 µM; in the data set with NCI-H1975 [8], 17.1 µM; in the data set with MCF7, 9.04 µM. The IC50 with A-431 was determined as 5.74 µM.
For `COc1cc2ncnc(Nc3ccc(C(=O)NC45CC6CC(CC(C6)C4)C5)cc3)c2cc1OCCCN1CCOCC1`, the IC50 in data set [1] is 0.00201 µM; in the data set on A549, 6.11 µM; in data set [3], 0.0054 µM; in data set [6], 0.009 µM; in the data set on NCI-H1975 [8] it was over 40 µM; with MCF7, 12 µM. Moreover, the concentration for half-maximal inhibition (IC50) in the data set with A-431 is 27.9 µM. Besides, the Ratio IC50 in [2] was 160.
As for `COc1cc2ncnc(Nc3ccc(C(=O)NC45CC6CC(CC(C6)C4)C5)c(C#N)c3)c2cc1OCCCN1CCOCC1`, the IC50 in data set [1] is 0.00471 µM; in the data set on A549, 5.94 µM; in [3], 0.00571 µM; in data set [6], 0.02 µM; with NCI-H1975 [8], 26.2 µM; in the data set on MCF7, 11.6 µM. This compound had an IC50 in the data set with A-431 of 3.39 µM. Also, the Ratio IC50 in [2] is 160.
On to `COc1cc2ncnc(Nc3cccc(C(=O)NC45CC6CC(CC(C6)C4)C5)c3)c2cc1OCCCN1CCOCC1`, for which the IC50 was found to be 0.00112 µM in [1]; 11.6 µM with A549; 0.0115 µM in data set [3]; 0.02 µM in data set [6]; 31 µM with NCI-H1975 [8]; 23.6 µM in the data set on MCF7. In the data set with A-431, this compound had an IC50 of 10.5 µM.
Take `COCCOc1cc2ncnc(Nc3ccc(NC(=O)C45CC6CC(CC(C6)C4)C5)c(OC)c3)c2cc1OCCOC`: the IC50 in [1] was 0.00594 µM; with A549, 7.62 µM; in data set [3], 0.0108 µM; in data set [6], over 0.04 µM; in the data set on NCI-H1975 [8], 33.1 µM; in the data set with MCF7 it was 5.19 µM. Also, half-maximal inhibition in the data set with A-431 (IC50) was put at 6.62 µM.
Turning to `COc1cc2ncnc(Nc3cccc(NC(=O)C45CC6CC(CC(C6)C4)C5)c3)c2cc1OCCCN1CCOCC1`, the IC50 in data set [1] turned out to be 0.00311 µM; in the data set on A549, 8.86 µM; in [3] it was 0.159 µM; in data set [6], 0.035 µM; with NCI-H1975 [8], 35.9 µM; with MCF7, 9.94 µM. Moreover, in the data set with A-431, the IC50 is 15.9 µM.
Take `COCCOc1cc2ncnc(Nc3ccc(NC(=O)C45CC6CC(CC(C6)C4)C5)cc3C)c2cc1OCCOC`: the IC50 in [1] was 0.00452 µM; in the data set on A549, 4.58 µM; in data set [3], 0.0165 µM; in data set [6], 0.025 µM; with NCI-H1975 [8] it was 16.6 µM; in the data set on MCF7, 5.34 µM. Further, it took 4.73 µM to reach half-maximal inhibition with A-431 (IC50).
As to `COCCOc1cc2ncnc(Nc3ccc(NC(=O)C45CC6CC(CC(C6)C4)C5)c(C)c3)c2cc1OCCOC`, the IC50 is 0.00292 µM in data set [1]; 8.01 µM with A549; 0.0663 µM in data set [3]; 0.023 µM in [6]; 21.6 µM with NCI-H1975 [8]; 8.35 µM in the data set with MCF7. In the data set with A-431, this compound had an IC50 of 5.61 µM.
Take `COc1cc2ncnc(Nc3ccc(C(=O)NC45CC6CC(CC(C6)C4)C5)c(Cl)c3)c2cc1OCCCN1CCOCC1`: the IC50 came out at 0.00642 µM in data set [1]; 2.65 µM with A549; 0.00462 µM in data set [3]; 0.009 µM in data set [6]; 5.89 µM with NCI-H1975 [8]; 5.48 µM in the data set on MCF7. The compound further gave an IC50 in the data set with A-431 of 2.06 µM. Moreover, the figures for the Ratio IC50 (in [2]; in the data set with NCI-H1975 [11]) were 160 and 5, respectively. The Activity entry in the data set with NCI-H1975 [4], with NCI-H1975 [7] and in the data set with NCI-H1975 [10] was “Non-toxic” each time. In data set [5], the inhibition entry is “Active”. Also, the inhibition result in [9] is “Dose-dependent effect”.

The record behind these values is ChEMBL document CHEMBL3763063, “Novel 4-anilinoquinazoline derivatives featuring an 1-adamantyl moiety as potent EGFR inhibitors with enhanced activity against NSCLC cell lines” (Eur J Med Chem, 2016).
